Data reported in US20150208645A1, “PHYTOSANITARY COMPOSITIONS COMPRISING AN ETHER-AMIDE COMPOUND” (priority 2012, published 2015).

Assays:
Type in all cases: physicochemical
[1] = Visual observation at 25° C. of EC formulation (aspect, presence of crystals); conditions: 10% Alkamuls RC, remainder the solvent
Procedure: (§1) By mixing the ingredients, formulations of various phytosanitary active ingredients of the type emulsifiable concentrate type (EC) are prepared. […] The following tests are conducted: Visual observation at 25° C.—The aspect of the formulation is noted and the presence of crystals is optionally located

[2] = Visual observation at 0° C. with nucleation (crystal of active material introduced, again 7 days at 0° C.); conditions: 10% Alkamuls RC, remainder the solvent, seeded with crystal, further 7 days at 0° C.
Procedure: By mixing the ingredients, formulations of various phytosanitary active ingredients of the type emulsifiable concentrate type (EC) are prepared. The formulations comprise: […]
10% by weight of the surfactant Alkamuls® RC, marketed by Rhodia
and, as a solvent, the remainder of the compound of the examples.
The following tests are conducted:
Visual observation at 0° C. with nucleation: A crystal of active material is introduced into the formulation having spent 7 days at 0° C. formulation, and the formulation is again placed for 7 days at 0° C. The aspect of the formulation is noted and the presence of crystals is optionally located.

[3] = Visual observation at 0° C. after 7 days (test CIPAC MT39); conditions: 10% Alkamuls RC, remainder the solvent, 7 days at 0° C.
Procedure: as §1, with “0°” for “25°”, “C.—The formulation is placed for 7 days at 0° C. and the” for “C.—The”, “located (test CIPAC MT39)” for “located”

[4] = EC formulation: Azoxystrobin 25% by weight
[5] = EC formulation: Difenconazole 25% by weight
[6] = EC formulation: Dimethoate 40% by weight
[7] = EC formulation: Oxyfluorfen 22% by weight
[8] = EC formulation: Phenmedipham 16% by weight
[9] = EC formulation: Propanil 36% by weight
[10] = EC formulation: Propoxur 20% by weight
[11] = EC formulation: Tebuconazole 25% by weight
[12] = EC formulation: Trifluralin 40% by weight

## CCOCCCC(=O)N(C)C [Compound 4]
[1]; [4]
  Aspect at 25° C.: Crystals
[1]; [5]
  Aspect at 25° C.: Limpid
[1]; [6]
  Aspect at 25° C.: Limpid
[1]; [7]
  Aspect at 25° C.: Cloudy
[1]; [8]
  Aspect at 25° C.: Limpid
[1]; [9]
  Aspect at 25° C.: Limpid
[1]; [10]
  Aspect at 25° C.: Limpid
[1]; [11]
  Aspect at 25° C.: Limpid
[1]; [12]
  Aspect at 25° C.: Limpid
[2]; [4]
  Aspect at 0° C. with nucleation: Crystals
[2]; [5]
  Aspect at 0° C. with nucleation: Limpid
[2]; [6]
  Aspect at 0° C. with nucleation: Limpid
[2]; [7]
  Aspect at 0° C. with nucleation: Cloudy
[2]; [8]
  Aspect at 0° C. with nucleation: Limpid
[2]; [9]
  Aspect at 0° C. with nucleation: Limpid
[2]; [10]
  Aspect at 0° C. with nucleation: Limpid
[2]; [11]
  Aspect at 0° C. with nucleation: Limpid
[2]; [12]
  Aspect at 0° C. with nucleation: Crystals
[3]; [4]
  Aspect at 0° C.: Crystals
[3]; [5]
  Aspect at 0° C.: Limpid
[3]; [6]
  Aspect at 0° C.: Limpid
[3]; [7]
  Aspect at 0° C.: Cloudy
[3]; [8]
  Aspect at 0° C.: Limpid
[3]; [9]
  Aspect at 0° C.: Limpid
[3]; [10]
  Aspect at 0° C.: Limpid
[3]; [11]
  Aspect at 0° C.: Limpid
[3]; [12]
  Aspect at 0° C.: Limpid
